The values that follow come from ChEMBL document CHEMBL4422633, “Antioxidant-Inspired Drug Discovery: Antitumor Metabolite Is Formed in Situ from a Hydroxycinnamic Acid Derivative upon Free-Radical Scavenging” (J Med Chem, 2019).

The nature of data set [1]: Antioxidant activity assessed as hydroxyl radical scavenging activity by measuring inhibition of damage to 2-deoxy-D-ribose after 3 mins by TBA-based Fenton reaction assay. Type of data set: functional.
Data set [2] relates to A549. The data set can be described thus: Induction of apoptosis in human A549 cells assessed as viable cells at 10 uM after 24 hrs by Annexin V/propidium iodide-staining based flow cytometry (reference value: 96.45 +/- 2.89%). The note with it: A549, 24 h, read-out: Activity. The class given is functional. For orientation: In flow cytometry, cells or beads pass a laser one at a time.

Data set [3] concerns A549. The data set can be described thus: Cytotoxicity against human A549 cells assessed as reduction in cell viability after 72 hrs by MTT assay. The class given is functional, cell-based. Particulars: A549, 72 h.
Data set [4] concerns NCI-H460. The data set can be described thus: Reduction in ROS generation in human NCI-H460 cells assessed as decrease in DHE positive cells at 10 uM after 24 hrs by DHE-staining based flow cytometry. The class given is functional, cell-based.
For data set [5], the system named is NCI-H661. Put plainly: Cytotoxicity against human NCI-H661 cells assessed as reduction in cell viability after 72 hrs by MTT assay. The class given is functional, cell-based. Particulars: NCI-H661, 72 h. Background: Tetrazolium dyes change colour on reduction, which living cells bring about.
Data set [6] relates to A549. Put plainly: Induction of apoptosis in human A549 cells assessed as early apoptotic cells at 10 uM after 24 hrs by Annexin V/propidium iodide-staining based flow cytometry (reference value: 0.48 +/- 0.01%). Type of data set: functional.
A further data set deals with HeLa. The data set can be described thus: Cytotoxicity against human HeLa cells assessed as reduction in cell viability after 72 hrs by MTT assay. The class given is functional, cell-based.
Data set [7] is described as follows: Cytotoxicity against mouse L5178B1 cells transfected with pHa MDR1/A retrovirus assessed as reduction in cell viability after 72 hrs by MTT assay. The class given is functional, cell-based. The note with it: MDR1, 72 h.
In data set [8] the test system is NCI-H661. The data set can be described thus: Induction of apoptosis in human NCI-H661 cells assessed as early apoptotic cells at 10 uM after 24 hrs by Annexin V/propidium iodide-staining based flow cytometry (reference value: 0.31 +/- 0.01%). The class given is functional.
In data set [9] the test system is NCI-H661. Put plainly: Induction of apoptosis in human NCI-H661 cells assessed as viable cells at 10 uM after 24 hrs by Annexin V/propidium iodide-staining based flow cytometry (reference value: 96.16 +/- 0.96%). The note with it: NCI-H661, 24 h, read-out: Activity. The class given is functional.
Data set [10] deals with A549. The data set can be described thus: Induction of apoptosis in human A549 cells assessed as late apoptotic cells at 10 uM after 24 hrs by Annexin V/propidium iodide-staining based flow cytometry (reference value: 1.54 +/- 0.03%). The class given is functional.
A short description of data set [11]: Induction of apoptosis in human NCI-H460/R cells transfected with MDR assessed as late apoptotic cells at 10 uM after 24 hrs by Annexin V/propidium iodide-staining based flow cytometry (reference value: 0.84 +/- 0.01%). The class given is functional.
The test system of data set [12] is HaCaT. Put plainly: Cytotoxicity against human HaCaT cells assessed as reduction in cell viability after 72 hrs by MTT assay. The class given is cell-based.
The test system of data set [13] is HaCaT. The data set can be described thus: Induction of apoptosis in human HaCaT cells assessed as early apoptotic cells at 10 uM after 24 hrs by Annexin V/propidium iodide-staining based flow cytometry (reference value: 0.23 +/- 0.01%). The class given is cell-based.
The subject of data set [14] is HaCaT. Put plainly: Induction of apoptosis in human HaCaT cells assessed as late apoptotic cells at 10 uM after 24 hrs by Annexin V/propidium iodide-staining based flow cytometry (reference value: 2.26 +/- 0.09%). Type of data set: cell-based.
The species named for data set [15] is Homo sapiens. Put plainly: Reduction in ROS generation in human NCI-H460/R cells transfected with MDR assessed as reduction in DHE positive cells at 10 uM after 24 hrs by DHE-staining based flow cytometry. Type of data set: functional, cell-based.
The test system of data set [16] is NCI-H460. Put plainly: Induction of apoptosis in human NCI-H460 cells assessed as viable cells at 10 uM after 24 hrs by Annexin V/propidium iodide-staining based flow cytometry (reference value: 96.49 +/- 0.96%). The note with it: NCI-H460, 24 h, read-out: Activity. Type of data set: functional.
Data set [17] is described as follows: Cytotoxicity against mouse L5178 cells assessed as reduction in cell viability after 72 hrs by MTT assay. The class given is functional, cell-based. The note with it: L5178, 72 h.
Data set [18] has as its system NCI-H661. The data set can be described thus: Induction of apoptosis in human NCI-H661 cells assessed as late apoptotic cells at 10 uM after 24 hrs by Annexin V/propidium iodide-staining based flow cytometry (reference value: 0.95 +/- 0.03%). Type of data set: functional.
Data set [19] is described as follows: Induction of apoptosis in human NCI-H460/R cells transfected with MDR assessed as necrotic cells at 10 uM after 24 hrs by Annexin V/propidium iodide-staining based flow cytometry (reference value: 3.17 +/- 0.13%). Type of data set: functional.
Data set [20] deals with NCI-H460. Put plainly: Induction of apoptosis in human NCI-H460 cells assessed as late apoptotic cells at 10 uM after 24 hrs by Annexin V/propidium iodide-staining based flow cytometry (reference value: 0.93 +/- 0.04%). Type of data set: functional.
A short description of data set [21]: Induction of apoptosis in human NCI-H460/R cells transfected with MDR assessed as viable cells at 10 uM after 24 hrs by Annexin V/propidium iodide-staining based flow cytometry (reference value: 95.76 +/- 2.87%). Particulars: NCI-H460, 24 h, read-out: Activity. The class given is functional.
The nature of data set [22]: Induction of apoptosis in human NCI-H460/R cells transfected with MDR assessed as early apoptotic cells at 10 uM after 24 hrs by Annexin V/propidium iodide-staining based flow cytometry (reference value: 0.22 +/- 0.01%). The class given is functional.
In data set [23] the test system is A549. Put plainly: Reduction in ROS generation in human A549 cells assessed as decrease in DHE positive cells at 10 uM after 24 hrs by DHE-staining based flow cytometry. The class given is functional, cell-based.
The species entered for data set [24] is Homo sapiens. Put plainly: DNA protective activity in human NCI-H460/R cells transfected with MDR assessed as increase in H2AX expression at 10 uM after 24 hrs by alexa fluor 488-staining based flow cytometry. The class given is functional, cell-based.
Data set [25] relates to A549. Put plainly: Induction of apoptosis in human A549 cells assessed as necrotic cells at 10 uM after 24 hrs by Annexin V/propidium iodide-staining based flow cytometry (reference value: 1.52 +/- 0.05%). The class given is functional.
The subject of data set [26] is NCI-H460. Put plainly: Cytotoxicity against human NCI-H460 cells assessed as reduction in cell viability after 72 hrs by MTT assay. The class given is functional, cell-based. The note with it: NCI-H460, 72 h.
In data set [27] the test system is HaCaT. Put plainly: Induction of apoptosis in human HaCaT cells assessed as necrotic cells at 10 uM after 24 hrs by Annexin V/propidium iodide-staining based flow cytometry (reference value: 1.88 +/- 0.02%). Type of data set: cell-based.
Data set [28] relates to NCI-H661. The data set can be described thus: Induction of apoptosis in human NCI-H661 cells assessed as necrotic cells at 10 uM after 24 hrs by Annexin V/propidium iodide-staining based flow cytometry (reference value: 2.58 +/- 0.05%). Type of data set: functional.
For data set [29], the system named is NCI-H460. Put plainly: Induction of apoptosis in human NCI-H460 cells assessed as necrotic cells at 10 uM after 24 hrs by Annexin V/propidium iodide-staining based flow cytometry (reference value: 2.13 +/- 0.02%). Type of data set: functional.
Data set [30] relates to HaCaT. Put plainly: Reduction in ROS generation in human HaCaT cells assessed as decrease in DHE positive cells at 10 uM after 24 hrs by DHE-staining based flow cytometry. Type of data set: functional, cell-based.
Data set [31] concerns HaCaT. Put plainly: DNA protective activity in human HaCaT cells assessed as reduction in H2AX expression at 10 uM after 24 hrs by alexa fluor 488-staining based flow cytometry. Type of data set: functional, cell-based.
The test system of data set [32] is NCI-H661. Put plainly: Reduction in ROS generation in human NCI-H661 cells assessed as decrease in DHE positive cells at 10 uM after 24 hrs by DHE-staining based flow cytometry. The class given is functional, cell-based.
For data set [33], the system named is NCI-H460. Put plainly: Induction of apoptosis in human NCI-H460 cells assessed as early apoptotic cells at 10 uM after 24 hrs by Annexin V/propidium iodide-staining based flow cytometry (reference value: 0.45 +/- 0.01%). Type of data set: functional.
Data set [34] in a line: Induction of apoptosis in human HaCaT cells assessed as viable cells at 10 uM after 24 hrs by Annexin V/propidium iodide-staining based flow cytometry (reference value: 95.63 +/- 3.83%). Type of data set: cell-based. Particulars: read-out: Activity.
Data set [35] has as its system NCI-H460. Put plainly: DNA protective activity in human NCI-H460 cells assessed as reduction in H2AX expression at 10 uM after 24 hrs by alexa fluor 488-staining based flow cytometry. Type of data set: functional, cell-based.
A short description of data set [36]: Cytotoxicity against human NCI-H460/R cells transfected with MDR assessed as reduction in cell viability after 72 hrs by MTT assay. The class given is functional, cell-based. Particulars: NCI-H460, 72 h.

Molecules are shown by their SMILES. Activity calls are given as the source filed them. No cut-off for these calls is given here. Bounds are passed on as bounds.

As a reminder, the IC50 is the midpoint of a concentration-inhibition curve.

Take `CC(C)(C)/[N+]([O-])=C/c1ccc(S(=O)(=O)O)cc1S(=O)(=O)O`: the IC50 in data set [1] was 1.83 mM.

For the compound `COC(=O)/C=C/c1cc(O)ccc1O`, the viability at 10 µM with A549 [2] worked out at 88.2%; in the data set on NCI-H661 [9], 89.4%; in the data set on NCI-H460 [16] it was 86.6%; in [21], 89.7%. In addition, the concentration for half-maximal inhibition (IC50) in the data set on A549 [3] was determined as 4.14 µM; with NCI-H661 [5], 4.19 µM; with HeLa, 8.51 µM; in data set [7], 12.4 µM; in the data set with HaCaT [12] it was 9.69 µM; in [17], 5.23 µM. Moreover, the results for the IC50 (in the data set on NCI-H460 [26]; in [36]) were 3.77 µM and 7.05 µM, respectively. Further, the result in the data set with NCI-H460 [4], in the data set filed under Homo sapiens [15], with A549 [23], in the data set filed under Homo sapiens [24], in the data set on HaCaT [30] and in the data set with HaCaT [31] was Active. In addition, the result in the data set with NCI-H661 [32] and in the data set with NCI-H460 [35] was Active. Further, the Activity was 2.36% in the data set on A549 [6]; 0.49% in the data set on NCI-H661 [8]; 5.62% with A549 [10]; 2.48% in [11]; 0.5% in the data set with HaCaT [13]; 2.65% with HaCaT [14]. In addition, the Activity with NCI-H661 [18] is 3.39%; in [19], 7.71%; in the data set with NCI-H460 [20], 5.1%; in data set [22] it was 0.16%; in the data set on A549 [25], 3.78%; with HaCaT [27] it was 5.9%. Besides, the figures for the Activity with NCI-H661 [28], with NCI-H460 [29] and with NCI-H460 [33] were 6.69%, 9.92% and 0.34%, respectively. Further, the viability at 24 h, 10 µM in data set [34] amounted to 91%.

`O=Cc1ccc(O)cc1` [4-HYDROXYBENZALDEHYDE]: the IC50 in [7] and in data set [17] was above 150 µM throughout.
